# Assays:
# human A1R = target: T1, human A1R (Homo sapiens, UniProt P30542); assay: Displacement of specific [3H]-CCPA binding at human A1R expressed in CHO cells; conditions: [3H]-CCPA displacement, means ± SE, read-out: hA1R (Ki nM)
# T1 construct: expressed in transfected cells; host or cells: CHO cells
# T1 sequence (P30542 1-326): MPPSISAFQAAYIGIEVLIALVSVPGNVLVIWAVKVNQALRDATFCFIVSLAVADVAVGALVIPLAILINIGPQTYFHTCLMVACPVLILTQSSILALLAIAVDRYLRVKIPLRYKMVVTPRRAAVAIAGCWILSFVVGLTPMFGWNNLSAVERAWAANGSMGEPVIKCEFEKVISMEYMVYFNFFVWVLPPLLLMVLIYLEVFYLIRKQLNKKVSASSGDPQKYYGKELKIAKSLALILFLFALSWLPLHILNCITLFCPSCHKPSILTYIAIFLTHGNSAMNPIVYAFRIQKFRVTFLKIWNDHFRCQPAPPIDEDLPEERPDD
# human A2AR = target: T2, human A2AR (Homo sapiens, UniProt P29274); assay: Displacement of specific [3H]-NECA binding at human A2AR expressed in CHO cells; conditions: [3H]-NECA displacement, means ± SE, read-out: hA2AR (Ki nM)
# T2 construct: expressed in transfected cells; host or cells: CHO cells
# hA2BR = target: T3, hA2BR (Homo sapiens, UniProt P29275); assay: Inhibition of NECA-stimulated adenylyl cyclase activity in CHO cells expressing hA2BR (GloSensor cAMP assay); type: cell-based; conditions: means ± SE
# T3 construct: expressed in transfected cells; host or cells: cells stably expressing the receptor and the GloSensor biosensor (CHO)
# T3 sequence (P29275 1-332): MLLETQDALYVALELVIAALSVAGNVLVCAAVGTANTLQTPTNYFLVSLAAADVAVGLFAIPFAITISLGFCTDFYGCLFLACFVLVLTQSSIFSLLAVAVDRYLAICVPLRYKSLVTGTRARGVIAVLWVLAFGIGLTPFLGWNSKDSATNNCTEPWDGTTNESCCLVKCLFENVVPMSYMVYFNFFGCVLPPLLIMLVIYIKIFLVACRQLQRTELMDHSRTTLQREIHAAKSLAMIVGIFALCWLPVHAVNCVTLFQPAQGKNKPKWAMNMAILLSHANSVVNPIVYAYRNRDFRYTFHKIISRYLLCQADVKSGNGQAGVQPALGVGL
# Description: The activity of compounds understudy was evaluated using the GloSensor™ (Promega Corporation) cAMP assay, which is a new non-radioactive method offering a simple approach to monitor GPCR activity through change in the intracellular cAMP concentration. This assay uses a mutant form of Photinus pyralis luciferase into which a cAMP-binding protein moiety has been inserted. The binding with cAMP triggers a biosensor conformational change that leads to an increase of light output allowing to evaluate the activity of ligands at the receptor under study. Following pre-equilibration with a substrate, cells stably expressing both the receptor of interest and the biosensor can be used to evaluate GPCR function enabling easy kinetic measurements of cAMP accumulation or turnover in living cells.
# The antagonist profile of the compounds on A2BR was evaluated by assessing their ability to counteract the agonist NECA-induced increase of cAMP accumulation. After 2 hours of equilibration in reaction medium cells were incubated in 384 well plate (10 minutes at room temperature) with 3 μL of different antagonist concentrations and then treated with 3 μL of a fixed dose of NECA. After another 10 minutes of incubation various luminescence reads were performed at different incubation times.
# human A3R = target: T4, human A3R (Homo sapiens, UniProt P0DMS8); assay: Displacement of specific [3H]-HEMADO binding at human A3R expressed in CHO cells; conditions: [3H]-HEMADO displacement, means ± SE, read-out: hA3R (Ki nM)
# T4 construct: expressed in transfected cells; host or cells: CHO cells
# T4 sequence (P0DMS8 1-318): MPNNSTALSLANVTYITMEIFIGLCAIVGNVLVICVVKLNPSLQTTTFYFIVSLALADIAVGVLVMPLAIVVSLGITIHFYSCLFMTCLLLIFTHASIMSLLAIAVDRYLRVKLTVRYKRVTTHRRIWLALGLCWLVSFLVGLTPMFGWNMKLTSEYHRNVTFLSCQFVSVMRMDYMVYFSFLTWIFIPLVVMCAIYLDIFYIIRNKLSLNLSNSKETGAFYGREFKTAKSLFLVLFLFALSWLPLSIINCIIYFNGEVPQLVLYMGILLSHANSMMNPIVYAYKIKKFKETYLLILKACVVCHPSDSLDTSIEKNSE
# T2 sequence (P29274 whole entry): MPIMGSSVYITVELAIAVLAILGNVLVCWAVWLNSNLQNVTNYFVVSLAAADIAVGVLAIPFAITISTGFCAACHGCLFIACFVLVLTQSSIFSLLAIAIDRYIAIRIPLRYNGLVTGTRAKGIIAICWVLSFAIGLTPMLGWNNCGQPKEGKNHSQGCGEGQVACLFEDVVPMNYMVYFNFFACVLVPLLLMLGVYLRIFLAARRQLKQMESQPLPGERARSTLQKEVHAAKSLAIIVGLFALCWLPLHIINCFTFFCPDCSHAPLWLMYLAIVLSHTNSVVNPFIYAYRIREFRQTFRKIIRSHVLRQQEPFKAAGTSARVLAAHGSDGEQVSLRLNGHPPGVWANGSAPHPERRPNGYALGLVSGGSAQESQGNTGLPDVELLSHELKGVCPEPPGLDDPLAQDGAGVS
SMILES,Ki (human A1R),Ki (human A2AR),IC50 (hA2BR),Ki (human A3R)
"CCOC(=O)c1cc(C(=O)c2ccc(Br)cc2)n2ccc(C(=O)OC(C)C)cc12 [KNV-ISP8, 1-Ethyl 7-isopropyl 3-(4-bromobenzoyl)indolizine-1,7-dicarboxylate]",> 30000 nM,> 30000 nM,> 30000 nM,1680 ± 283 nM
"CCOC(=O)c1cc(C(=O)c2ccc(C#N)cc2)n2ccc(C(=O)OC(C)C)cc12 [KNV-ISP10, 1-Ethyl 7-isopropyl 3-(4-cyanobenzoyl)indolizine-1,7-dicarboxylate]",> 30000 nM,> 30000 nM,> 30000 nM,7670 ± 1730 nM
"COC(=O)c1c(C(=O)OC)c2cc(C(=O)OC(C)C)ccn2c1C(=O)c1ccc(C#N)cc1 [KNV-ISP9, 7-Isopropyl 1,2-dimethyl 3-(4-cyanobenzoyl)indolizine-1,2,7-tricarboxylate]",> 30000 nM,10300 ± 1340 nM,> 30000 nM,6210 ± 338 nM
"CCOC(=O)c1cc(C(=O)c2ccccc2)n2ccc(C(=O)OC(C)C)cc12 [KNV-ISP2, 1-Ethyl 7-isopropyl 3-benzoylindolizine-1,7-dicarboxylate]",7050 ± 706 nM,> 30000 nM,> 30000 nM,3640 ± 837 nM
"CCOC(=O)c1cc(C(=O)c2ccc(Cl)cc2)n2ccc(C(=O)OC(C)C)cc12 [KNV-ISP6, 1-Ethyl 7-isopropyl 3-(4-chlorobenzoyl)indolizine-1,7-dicarboxylate]",> 30000 nM,> 30000 nM,> 30000 nM,14300 ± 480 nM

# Next, values leading:
Ki (human A1R),Ki (human A2AR),IC50 (hA2BR),Ki (human A3R),SMILES
2710 ± 388 nM,3950 ± 695 nM,> 30000 nM,1400 ± 348 nM,"COC(=O)c1c(C(=O)OC)c2cc(C(=O)OC(C)C)ccn2c1C(=O)c1ccc(F)cc1 [KNV-ISP3, 7-Isopropyl 1,2-dimethyl 3-(4-fluorobenzoyl)indolizine-1,2,7-tricarboxylate]"
5410 ± 711 nM,14900 ± 3750 nM,> 30000 nM,1220 ± 339 nM,"COC(=O)c1c(C(=O)OC)c2cc(C(=O)OC(C)C)ccn2c1C(=O)c1ccc(Br)cc1 [KNV-ISP7, 7-Isopropyl 1,2-dimethyl 3-(4-bromobenzoyl)indolizine-1,2,7-tricarboxylate]"
692 ± 41 nM,2921 ± 13 nM,> 30000 nM,1600 ± 14 nM,"COC(=O)c1c(C(=O)OC)c2cc(C(=O)OC(C)C)ccn2c1C(=O)c1ccc(C)cc1 [KNV-ISP11, 7-Isopropyl 1,2-dimethyl 3-(4-methylbenzoyl)indolizine-1,2,7-tricarboxylate]"
3712 ± 12 nM,7400 ± 833 nM,> 30000 nM,7597 ± 29 nM,"COC(=O)c1c(C(=O)OC)c2cc(C(=O)OC(C)C)ccn2c1C(=O)c1ccc(Cl)cc1 [KNV-ISP5, 7-Isopropyl 1,2-dimethyl 3-(4-chlorobenzoyl)indolizine-1,2,7-tricarboxylate]"
6980 ± 577 nM,> 30000 nM,> 30000 nM,665 ± 26 nM,"CCOC(=O)c1cc(C(=O)c2ccc(F)cc2)n2ccc(C(=O)OC(C)C)cc12 [KNV-ISP4, 1-Ethyl 7-isopropyl 3-(4-fluorobenzoyl)indolizine-1,7-dicarboxylate]"
1640 ± 37 nM,2690 ± 631 nM,> 30000 nM,2200 ± 313 nM,"COC(=O)c1c(C(=O)OC)c2cc(C(=O)OC(C)C)ccn2c1C(=O)c1ccccc1 [KNV-ISP1, 7-Isopropyl 1,2-dimethyl 3-benzoylindolizine-1,2,7-tricarboxylate]"

# From patent US11981673B1, “7-isopropyl 1,2-dimethyl 3-(substituted benzoyl)indolizine-1,2,7 tricarboxylates as adenosine receptor active compounds” (KING FAISAL UNIVERSITY, priority 2023, dated 2024)
